Measurements from patent publication US7396844B1, “Benzamidine derivatives” (Ajinomoto Co., Inc., priority 1997, dated 2008).
Counter-ions that a name gives are not always drawn. Like-named read-outs stand apart in the source and are kept apart here.

How the values were obtained:
human thrombin = target: T1, human thrombin (Homo sapiens, UniProt P00734); assay: Determination of thrombin-inhibiting activity; format: biochemical; conditions: for IC50: read-out: Thrombin-inhibiting activity (pIC50) (converted)
T1 construct: human thrombin (a product of SIGMA Co.); purchased SIGMA Co
Experimental: 130 μl of 100 mM Tris-HCl buffer adjusted to pH 8.4 was added to 10 μl of an aqueous solution of a test compound. Then 10 μl of a solution of human thrombin (a product of SIGMA Co.) adjusted to 2 units/ml with Tris-HCl buffer of pH 8.4 was added to the resultant mixture. […] The absorbance was determined and then the initial reaction rate was determined. A control was prepared in the same manner as that described above except that the solution of the compound to be tested was replaced with 10 μl of tris hydrochloride buffer adjusted to pH 8.4.

[1] = target: T2, activated human blood coagulation factor X (Homo sapiens, UniProt P00742); assay: Determination of activity of inhibiting the activated blood coagulation factor X; format: biochemical; conditions: for IC50: read-out: Activity of inhibiting activated blood coagulation factor X (pIC50) (converted)
T2 construct: purchased Enzyme Research Co
T2 sequence (P00742 235-488 limits assumed): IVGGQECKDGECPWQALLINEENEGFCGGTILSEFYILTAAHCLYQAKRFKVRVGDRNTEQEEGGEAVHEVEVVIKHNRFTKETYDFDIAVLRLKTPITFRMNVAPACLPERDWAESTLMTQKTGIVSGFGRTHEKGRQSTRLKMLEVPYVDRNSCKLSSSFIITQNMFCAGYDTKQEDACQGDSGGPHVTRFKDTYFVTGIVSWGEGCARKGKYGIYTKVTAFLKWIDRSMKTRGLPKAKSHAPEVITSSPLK
T2 sequence (P00742 41-179 partner limits assumed): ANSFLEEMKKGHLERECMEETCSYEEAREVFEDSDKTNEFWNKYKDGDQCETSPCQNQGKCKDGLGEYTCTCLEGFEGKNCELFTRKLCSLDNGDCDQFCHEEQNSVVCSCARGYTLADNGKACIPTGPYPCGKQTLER
Experimental: 130 μl of 100 mM Tris-HCl buffer adjusted to pH 8.4 was added to 10 μl of an aqueous solution of a compound to be tested. Then 10 μl of a 0.5 unit/ml solution of activated human blood coagulation factor X (a product of Enzyme Research Co.) in Tris-HCl buffer hydrochloride of pH 8.4 was added to the resultant mixture. After the incubation at room temperature for 10 minutes, 50 μl of a solution of N-benzoyl-L-isoleucyl-L-glutamyl-glycyl-L-arginyl-p-nitroanilide hydrochloride (a product of Peptide Institute, Inc.) adjusted to 0.8 mM with Tris-HCl buffer (pH 8.4) was added thereto. The absorbance was determined and then the initial reaction rate was determined. A control was prepared in the same manner as that described above except that the solution of the compound to be tested was replaced with 10 μl of Tris-HCl buffer adjusted to pH 8.4.

[2] = Table 1, negative logarithm of concentration inhibiting 50% of initial rate, substrate S-2238, Tris-HCl pH 8.4
[3] = Table 1, negative logarithm of concentration inhibiting 50% of initial rate, Tris-HCl pH 8.4, room temperature
[4] = Table 2, same manner as Example 94
[5] = Table 2, same manner as Example 93

Row | Compound | IC50 (human thrombin; [2]) [µM] | IC50 [1, 3] [µM] | further results
1 | N=C(N)c1ccc(C(=O)N[C@H](CCOc2cccc(C(=N)N)c2)C(=O)O)cc1 [Compound of Ex. 92, (2R)-2-(4-amidinobenzoylamino)-4-(3-amidinophenoxy)butanoic acid bistrifluoroacetate] | > 1000 | 0.0501 | –
2 | N=C(N)c1cccc(OCCNC(=O)c2ccc(CC3CCNCC3)cc2)c1 [Compound of Ex. 43, N-[2-(3-amidinophenoxy)ethyl]-4-[(piperidine-4-yl)methyl]benzamide bistrifluoroacetate] | 50.1 | 0.251 | –
3 | CCS(=O)(=O)N[C@H](COc1cccc(C(=N)N)c1)Cc1ccc(OC2CCN(C(C)=N)CC2)cc1 [Compound of Ex. 160, 3-[(2S)-2-(ethanesulfonylamino)-3-[4-(1-acetimidoyl-4-piperidyloxy)phenyl]propoxy]benzamidine bistrifluoroacetate] | – | – | IC50 (human thrombin; [4]): 158 µM; IC50 [1, 5]: 0.316 µM
4 | N=C(N)c1ccc(C(=O)Nc2cccc(COc3cccc(C(=N)N)c3)c2)cc1.O=C(O)C(F)(F)F.O=C(O)C(F)(F)F [Compound of Ex. 69, N-[3-(3-amidinophenoxymethyl)]phenyl-4-amidinobenzamide bistrifluoroacetate] | – | – | Thrombin-inhibiting activity (pIC50) (human thrombin; [2]): 4.5; Activity of inhibiting activated blood coagulation factor X (pIC50) [1, 3]: 6.6
5 | N=C(N)c1ccc(CC(=O)C(=O)O)c(OCCNC(=O)c2ccc(N3CCCC3)cc2)c1 [Compound of Ex. 82, 3-[4-amidino-2-[2-[4-(pyrrolidine-1-yl)benzoylamino]ethoxy]phenyl]-2-oxopropionic acid trifluoroacetate] | 6.31 | 0.0251 | –
6 | CC(=N)N1CCC(Oc2ccc(C(=O)N[C@@H](COc3cccc(C(=N)N)c3)CC(=O)O)cc2)CC1.O=C(O)C(F)(F)F.O=C(O)C(F)(F)F [Compound of Ex. 62, (3R)-4-(3-amidinophenoxy)-3-[4-(1-acetimidoyl-4-piperidyloxy)benzoylamino]butylic acid bistrifluoroacetate] | – | – | Thrombin-inhibiting activity (pIC50) (human thrombin; [2]): <3.3; Activity of inhibiting activated blood coagulation factor X (pIC50) [1, 3]: 7.4
7 | N=C(N)c1ccc(NC(=O)CCCOc2cccc(C(=N)N)c2)cc1 [Compound of Ex. 67, 4-(3-amidinophenoxy)-N-(4-amidinophenyl)butyramide bistrifluoroacetate] | 316 | 0.316 | –
8 | CN(C)C(=O)c1ccc(C(=O)NCCOc2cccc(C(=N)N)c2)cc1 [Compound of Ex. 3, N-[2-(3-amidinophenoxy)ethyl]-4-(N,N-dimethylcarbamoyl)benzamide trifluoroacetate] | – | 0.0251 | –
9 | N=C(N)c1cccc(OCCNC(=O)c2cccc(C(=N)N)c2)c1 [Compound of Ex. 96, N-[2-(3-amidinophenoxy)ethyl]-3-amidinobenzamide bistrifluoroacetate] | – | – | IC50 (human thrombin; [4]): > 1000 µM; IC50 [1, 5]: 1.58 µM
10 | N=C(N)c1cccc(OCCNC(=O)c2ccc(CCc3ccncc3)cc2)c1 [Compound of Ex. 14, N-[2-(3-amidinophenoxy)ethyl]-4-[2-(pyridine-4-yl)ethyl]benzamide bistrifluoroacetate] | 20 | 0.0501 | –
11 | N=C(N)c1ccc(C(=O)N[C@H](CCC(=O)O)COc2cccc(C(=N)N)c2)cc1 [Compound of Ex. 121, (4R)-4-(4-amidinobenzoylamino)-5-(3-amidinophenoxy)pentanoic acid bistrifluoroacetate] | – | – | IC50 (human thrombin; [4]): > 1000 µM; IC50 [1, 5]: 0.0501 µM
12 | N=C(N)Nc1ccc(C(=O)N[C@@H](COc2cccc(C(=N)N)c2)CC(=O)O)cc1 [Compound of Ex. 57, (3R)-4-(3-amidinophenoxy)-3-[(4-guanidinobenzoyl)amino]butyric acid bistrifluoroacetate] | > 1000 | 0.0126 | –
13 | CCOP(=O)(O)c1ccc(S(=O)(=O)N[C@H](COc2cccc(C(=N)N)c2)Cc2ccc(OC3CCN(C(C)=N)CC3)cc2)cc1.O=C(O)C(F)(F)F.O=C(O)C(F)(F)F [Compound of Ex. 73] | – | – | Thrombin-inhibiting activity (pIC50) (human thrombin; [2]): 3.9; Activity of inhibiting activated blood coagulation factor X (pIC50) [1, 3]: 8.1
14 | CN(C)C(=N)c1ccc(C(=O)NCCOc2cccc(C(=N)N)c2)cc1 [Compound of Ex. 7, N-[2-(3-amidinophenoxy)ethyl]-4-(N,N-dimethylamidino)benzamide bistrifluoroacetate] | – | 0.0794 | –
15 | N=C(N)c1ccc(CC(=O)C(=O)O)c(OCCNC(=O)c2ccc(CC3CCNCC3)cc2)c1 [Compound of Ex. 81, 3-[4-amidino-2-[2-[4-(4-piperidylmethyl)benzoylamino]ethoxy]phenyl]-2-oxopropionic acid bistrifluoroacetate] | 31.6 | 0.0794 | –
16 | CCOC(=O)C[C@H](COc1cccc(C(=N)N)c1)NC(=O)c1ccc(N2CCCC2)cc1 [Compound of Ex. 59, ethyl (3R)-4-(3-amidinophenoxy)-3-[4-(pyrrolidine-1-yl)benzoylamino]butyrate trifluoroacetate] | 15.8 | 0.0398 | –
17 | N=C(N)c1ccc(C(=S)NCCOc2cccc(C(=N)N)c2)cc1 [Compound of Ex. 1, N-[2-(3-amidinophenoxy)ethyl]-4-amidinobenzthioamide bistrifluoroacetate] | 398 | 0.398 | –
18 | N=C(N)c1cccc(OC[C@@H](CC(=O)O)NC(=O)c2ccc(N3CCCC3)cc2)c1 [Compound of Ex. 58, (3R)-4-(3-amidinophenoxy)-3-[4-(pyrrolidine-1-yl)benzoylamino]butyric acid trifluoroacetate] | > 1000 | 0.0251 | –
19 | N-[2-(3-amidinophenoxy)ethyl]-1-(4-pyridyl)piperidine-4-carboxyamide bistrifluoroacetate [Compound of Ex. 24] | – | – | Thrombin-inhibiting activity (pIC50) (human thrombin; [2]): 3.2; Activity of inhibiting activated blood coagulation factor X (pIC50) [1, 3]: 6.5
20 | N=C(N)c1ccc(C(=O)N[C@@H](COc2cccc(C(=N)N)c2)Cc2ccc(C(=O)O)cc2)cc1 [Compound of Ex. 90, 4-[(2R)-2-(4-amidinobenzoylamino)-3-(3-amidinophenoxy)propyl]benzoic acid bistrifluoroacetate] | > 251 | 0.0398 | –
21 | N=C(N)c1cccc(OCCNC(=O)c2ccc(C(=O)N3CCCC3)cc2)c1 [Compound of Ex. 9, N-[2-(3-amidinophenoxy)ethyl]-4-(1-pyrrolidinecarbonyl)benzamide trifluoroacetate] | 50.1 | 0.02 | –
22 | CC(=N)N1CCC(Oc2ccc(C(=O)NCCOc3cc(C(=N)N)ccc3CC(=O)C(=O)O)cc2)CC1 [Compound of Ex. 79, 3-[4-amidino-2-[2-[4-(1-acetimidoyl-4-piperidyloxy)benzoylamino]ethoxy]phenyl]-2-oxopropionic acid bistrifluoroacetate] | 25.1 | 0.02 | –
23 | N=C(N)c1ccc(C(=O)N(CCOc2cccc(C(=N)N)c2)Cc2ccccc2)cc1 [Compound of Ex. 114, N-[2-(3-amidinophenoxy)ethyl]-N-phenylmethyl-4-amidinobenzamide bistrifluoroacetate] | – | – | IC50 (human thrombin; [4]): 79.4 µM; IC50 [1, 5]: 0.0501 µM
24 | N=C(N)c1ccc(C(=O)N[C@@H](CCC(=O)O)COc2cccc(C(=N)N)c2)cc1 [Compound of Ex. 83, (4S)-4-(4-amidinobenzoylamino)-5-(3-amidinophenoxy)pentanoic acid bistrifluoroacetate] | > 1000 | 0.158 | –
25 | CC(=N)N1CCC(Oc2ccc(C[C@@H](COc3cccc(C(=N)N)c3)NS(=O)(=O)c3ccc4ccccc4c3)cc2)CC1 [Compound of Ex. 162, 3-[(2S)-2-(2-naphthalenesulfonylamino)-3-[4-(1-acetimidoyl-4-piperidyloxy)phenyl]propoxy]benzamidine bistrifluoroacetate] | – | – | IC50 (human thrombin; [4]): 39.8 µM; IC50 [1, 5]: 0.251 µM
26 | CCOC(=O)C[C@H](COc1cccc(C(=N)N)c1)NC(=O)c1ccc(-c2ccccc2)cc1 [Compound of Ex. 54, ethyl (3R)-3-[(biphenyl-4-carbonyl)amino]-4-(3-amidinophenoxy)butyrate trifluoroacetate] | 25.1 | 0.0501 | –
27 | CN(C)C(=O)c1ccc(C(=O)NCCOc2cc(C(=N)N)ccc2CC(=O)C(=O)O)cc1 [Compound of Ex. 80, 3-[4-amidino-2-[2-[4-(dimethylcarbamoyl)benzoylamino]ethoxy]phenyl]-2-oxo-propionic acid trifluoroacetate] | 39.8 | 0.0126 | –
28 | CN(C)C(=O)c1ccc(C(=O)CCCOc2cccc(C(=N)N)c2)cc1 [Compound of Ex. 64, 4-[4-(3-amidinophenoxy)butyryl]-N,N-dimethylbenzamide trifluoroacetate] | – | 0.0631 | –
